# Measured values: paper PMC12040169 (PLOS Biology, 2025)
# Test: in vitro
# Details: human, hela cells, % viability
row,Compound,"viability at 28.5 h, 10 µM"
1,CC(C)c1ccc(S(=O)(=O)Nc2ccc(OC(F)F)cc2)cc1 [CBK044565],87.8%
2,CCOC(=O)CN1CCN(S(=O)(=O)c2cc(Cl)ccc2Cl)CC1 [CBK044628],91.1%
3,Cc1cc(C)nc(NS(=O)(=O)c2ccc(OC(F)(F)F)cc2)c1 [CBK044711],90.7%
4,CC(C)c1ccc(S(=O)(=O)NCCC#N)cc1 [CBK044722],105%
5,CCc1cc(Br)ccc1S(=O)(=O)NCCC#N [CBK044760],91.9%
6,O=S(=O)(Nc1cccc(Cl)c1)c1ccc(OC(F)(F)F)cc1 [CBK044769],109%
7,CC(=O)Nc1ccc(S(=O)(=O)N(C)c2ccccn2)cc1Cl [CBK044789],94.5%
8,CCC(C)(C)c1ccc(S(=O)(=O)NCc2ccc(C(F)(F)F)cc2)cc1 [CBK044820],107%
9,O=C(NCCc1cccs1)Nc1ccc(Cl)cc1C(F)(F)F [CBK044825],86.1%
10,O=S(=O)(Nc1ccc(Cl)c(Cl)c1)c1ccc(Cl)c(Cl)c1 [CBK044838],86.8%
11,N#CCNS(=O)(=O)c1ccc(OC(F)(F)F)cc1 [CBK044841],111%
12,O=C(NCCc1cccs1)Nc1ccccc1OC(F)(F)F [CBK044873],98%
13,Cc1cc(S(=O)(=O)Nc2n[nH]cc2C#N)c(C)cc1Cl [CBK044943],91.9%
14,CCOC(=O)CNS(=O)(=O)c1cccs1 [CBK044958],93.3%
15,Cc1ccc(CNC(=O)NCCc2cccs2)cc1 [CBK044960],88.5%
16,Cc1cc(S(=O)(=O)N2CCN(c3ccc(Cl)cc3)CC2)c(C)cc1Cl [CBK044965],114%
17,Cc1cc(C)cc(NC(=O)NCCc2cccs2)c1 [CBK044998],93.2%
18,O=C(NCCc1cccs1)Nc1cccc(SC(F)(F)F)c1 [CBK044999],95%
19,CCc1cccc(NC(=O)NCCC2=CCCCC2)c1 [CBK045009],108%
20,CC(C)c1ccc(S(=O)(=O)Nc2cc(F)c(F)c(F)c2)cc1 [CBK045028],104%
21,CCc1cc(Br)ccc1S(=O)(=O)NCCc1cccs1 [CBK045033],109%
22,O=C(Nc1ccccc1C(F)(F)F)N1CCN(c2ccccc2Cl)CC1 [CBK045081],79.7%

row,Compound,"viability at 28.5 h, 10 µM"
1,O=S(=O)(c1ccc(Cl)s1)N1CCN(c2ccccc2Cl)CC1 [CBK045098],98%
2,CC(=O)Nc1ccc(S(=O)(=O)NCC#N)cc1Cl [CBK045102],97.3%
3,CCc1cc(Br)ccc1S(=O)(=O)NCc1cccc(F)c1 [CBK045114],89.1%
4,O=C(NCCc1ccccc1)NCCc1cccs1 [CBK045154],114%
5,O=S(=O)(c1cccs1)N1CCCN(Cc2nccs2)CC1 [CBK045172],119%
6,CCCCOc1ccc(NC(=O)NCCc2cccs2)cc1 [CBK045202],105%
7,O=S(=O)(c1ccc(F)c(Cl)c1)N1CCCN(Cc2ccccc2)CC1 [CBK045211],101%
8,COC[C@@H]1CCCN1S(=O)(=O)c1cccs1 [CBK045239],96%
9,CCC(C)(C)c1ccc(S(=O)(=O)Nc2cc(Cl)ccc2O)cc1 [CBK045243],96%
10,O=C(NCCc1cccs1)Nc1ccc2c(c1)C(F)(F)OC(F)(F)O2 [CBK045255],98.2%
11,Cc1ccc(NS(=O)(=O)c2cccs2)cc1 [CBK045362],64%
12,O=C(NCCc1cccs1)NCc1cc(F)ccc1F [CBK045363],97.1%
13,CC(=O)c1ccc(S(=O)(=O)Nc2ccc(C)cc2)cc1 [CBK045380],108%
14,COc1ccc(S(=O)(=O)Nc2ccccc2C(=O)Nc2ccc(F)cc2)cc1OC [CBK045404],91.2%
15,CCN(CC)C(=O)c1ccccc1NS(=O)(=O)c1cc(Br)ccc1OC [CBK045422],89.6%
16,O=C(Nc1ccc(F)cc1)c1ccccc1NS(=O)(=O)c1ccc(C(F)(F)F)cc1[N+](=O)[O-] [CBK045439],108%
17,CCOC(=O)N1CCC(NS(=O)(=O)c2ccc(F)cc2)CC1 [CBK045455],95.1%
18,CCOC(=O)N1CCC(NS(=O)(=O)Cc2ccccc2)CC1 [CBK045457],90.7%
19,CCOC(=O)N1CCC(NS(=O)(=O)c2cc(Cl)sc2Cl)CC1 [CBK045462],86.7%
20,CCOC(=O)N1CCC(NS(=O)(=O)c2cc(Br)ccc2OC)CC1 [CBK045463],115%
21,CCOC(=O)N1CCC(NS(=O)(=O)c2ccc(OC)c(OC)c2)CC1 [CBK045464],104%
22,CCOC(=O)N1CCC(NS(=O)(=O)Cc2ccccc2[N+](=O)[O-])CC1 [CBK045467],97.3%

row,Compound,"viability at 28.5 h, 10 µM"
1,CCOC(=O)N1CCC(NS(=O)(=O)c2ccc(C)c([N+](=O)[O-])c2)CC1 [CBK045468],85.8%
2,CCOC(=O)N1CCC(NS(=O)(=O)c2ccc(NC(C)=O)cc2)CC1 [CBK045470],97.8%
3,CCOC(=O)N1CCC(NS(=O)(=O)c2ccc(Cl)c(Cl)c2Cl)CC1 [CBK045471],96.4%
4,CCCCCC(=O)Nc1ccc(S(=O)(=O)Nc2nnc(CC)s2)cc1 [CBK045478],89%
5,Cc1ccc(S(=O)(=O)Nc2nnc(C)s2)cc1 [CBK045486],92.5%
6,O=S(=O)(Nc1nncs1)c1ccccc1 [CBK045489],86.7%
7,CC(=O)Nc1ccc(S(=O)(=O)Nc2nnc(C(C)(C)C)s2)cc1 [CBK045499],100%
8,CC(C)(C)c1nnc(NS(=O)(=O)c2ccc([N+](=O)[O-])cc2)s1 [CBK045500],93.3%
9,CC(=O)Nc1ccc(S(=O)(=O)Nc2nnc(Cc3ccc(Cl)cc3)s2)cc1 [CBK045515],97.9%
10,Cc1cc(C)c(S(=O)(=O)Nc2nnc(C(C)C)s2)c(C)c1 [CBK045516],102%
11,COc1ccc(S(=O)(=O)Nc2nnc(C(C)C)s2)cc1 [CBK045525],91.3%
12,COCc1nnc(NS(=O)(=O)c2ccc(Br)cc2)s1 [CBK045526],115%
13,Cc1ccc(S(=O)(=O)Nc2nnc(C(C)C)s2)cc1 [CBK045528],108%
14,O=S(=O)(Cc1ccccc1)Nc1nnc(C(F)(F)F)s1 [CBK045539],84.8%
15,CC(C)c1nnc(NS(=O)(=O)Cc2ccccc2)s1 [CBK045540],93%
16,COc1ccc(S(=O)(=O)Nc2nnc(C)s2)cc1 [CBK045543],114%
17,Cc1nc(NS(=O)(=O)/C=C/c2ccccc2)sc1C(=O)O [CBK045553],84.7%
18,Cc1nc(NS(=O)(=O)c2cc(F)c(Br)cc2F)sc1C(=O)O [CBK045556],96.5%
19,Cc1nc(NS(=O)(=O)c2cccc(Cl)c2C)sc1C(=O)O [CBK045561],110%
20,Cc1ccc(S(=O)(=O)Nc2nc(C)c(C(=O)O)s2)cc1[N+](=O)[O-] [CBK045565],91.3%
21,O=S(=O)(NCc1cccc(Cl)c1)c1csc2ccnc(N3CCNCC3)c12 [CBK045595C],88.6%

# Same assay, conditions: human, hela cells, % viability, bulk resorufin, single well
row,Compound,"viability at 28.5 h, 10 µM"
1,O=C(Nc1ccc(OC(F)(F)F)cc1)N1CCC2(CC1)OCCO2 [CBK045235],91.7%
